Test results taken from patent publication EP1893207B1, “USE OF SUBSTITUTED PIPERAZINE DERIVATIVES AND MORPHOLINE DERIVATIVES” (Merck Patent GmbH, priority 2005, dated 2006).

Assays:
Pilz-tyrosinase = assay: Tyrosinase assay (inhibition of the enzyme tyrosinase, L-DOPA substrate, optical density at 450 nm); type: biochemical; details: Tyrosinase 10 U, L-DOPA 4 mM, 1 h 37°C
Description: Die Wirkung der Verbindungen nach Formeln Ia bis IIp als Hautaufheller wird geprüft durch ihre Fähigkeit das Enzym Tyrosinase zu hemmen und damit die Melanin-Synthese zu unterbinden. Um die hemmende Wirkung der Verbindungen der Formeln Ia bis IIp gegenüber Tyrosinase zu zeigen wurden als Substrate Pilz-tyrosinase und L-Tyrosin oder L-DOPA verwendet und mit der Referenz-Verbindung verglichen.
Die Verbindungen Ia bis IIp und Tyrosinase (10 U) werden 10 Min. in Eis vorgekühlt und L-DOPA (4 mM) zugefügt und für 1 h auf 37°C gehalten. Es wird die optische Dichte jedes experimentell ermittelten Punktes bei 450 nm gegenüber der entsprechenden Referenz ohne Enzym gemessen. Kojicsäure wird als Tyrosinase-Referenz-Inhibitor benutzt. Die Versuchsergebnisse sind in der folgenden Tabelle 1 dargestellt, ausgedrückt durch den IC 50-Wert (d.h. die Konzentration der jeweiligen Versuchssubstanz bei der die Tyrosinase-Aktivität um 50% blockiert ist). Tab. 1 Tyrosinase-Versuchsergebnisse

[1] = system: normale menschliche Melanocyten; assay: Melanin assay (melanin content of human melanocyte cultures, optical density at 405 nm); type: cell-based; details: 240 h incubation; for % Kontrolle normiert*: melanin content normalised; for % Kontrolle: melanin content
Excerpt: Das Potential der Verbindungen nach Formeln Ia bis IIp als Hautaufheller-Wirkstoff wurde außerdem durch den Melanin-Versuch verifiziert. Der Effekt in Bezug auf den Melanin-Gehalt von menschlichen epidermalen Melanocyten-Kulturen dieser Verbindungen wurde ermittelt und mit der Referenzverbindung (Kojicsäure) verglichen.
Eine vorausgehende Cytotoxizitäts-Studie der Verbindungen nach Formeln Ia bis IIp wurde durchgeführt um drei nicht-cytotoxische Konzentrationen für den Melanin-Versuch zu ermitteln.
Melanin-Versuch: normale menschliche Melanocyten wurden in 24 Lochplatten (110.000 Zellen/Loch) kultiviert. Bei 50 % Zusammenfluss wurde das Kulturmedium mit oder ohne (Kontrollverbindung) Verbindungen der Formeln Ia bis IIp durch frisches Kulturmedium in drei verschiedenen Konzentrationen ersetzt.
Nach der Inkubation (240 Stunden) wurden die Monolayers gewaschen, die Zellen lysiert und das Melanin extrahiert. Es wurde die optische Dichte jedes experimentellen Punktes bei 405 nm gegen den Melanin-Standard gemessen. Tabelle 2 zeigt die Ergebnisse zwei ausgewählter Verbindungen im Vergleich zur Kojicsäure und der Kontrollverbindung (mit 100% Melaningehalt), wobei der ermittelte Melaningehalt (in %) bei jeweils drei verschiedenen Konzentrationen angegeben ist. Tab. 2 Melanin-Versuchsergebnisse

CC(C)(C)OC(=O)N1CCN(Cc2ccc(O)cc2O)CC1 [If, 4-(4-tert-Butoxycarbinyl-piperazin-1-ylmethyl)-benzen-1,3-diol]
IC50 (Pilz-tyrosinase): 140 µM

COc1ccc(CN2CCN(Cc3ccccc3)CC2)c(OC)c1 [Ii, 1-Benzyl-4-(2,4-dimethoxy-benzyl)-piperazin]
IC50 (Pilz-tyrosinase): > 1000 µM

Oc1cccc(CN2CCN(Cc3ccccc3)CC2)c1O [Ia, 3-(4-Benzyl-piperazin-1-ylmethyl)-benzen-1,2-diol]
Melanin ([1]; Konzent. 0.8 µg/mL): 38.6 µg/mL | Melanin normiert* ([1]; Konzent. 0.8 µg/mL): 36.4 µglmL | % Kontrolle normiert* ([1]; Konzent. 0.8 µg/mL): 98% | % Kontrolle ([1]; Konzent. 0.8 µg/mL): 104% | IC50 (Pilz-tyrosinase): 134 µM

c1cncc(CN2CCNCC2)c1 [IIo, 1-Pyridin-3-ylmethyl-piperazin]
IC50 (Pilz-tyrosinase): 360 µM

Oc1ccc(CN2CCOCC2)c(O)c1 [Ih, 4-Morpholin-1-ylmethyl-benzen-1,3-diol]
Melanin ([1]; Konzent. 1.6 µg/mL): 37.2 µg/mL | Melanin normiert* ([1]; Konzent. 1.6 µg/mL): 37.0 µglmL | Melanin ([1]; Konzent. 8 µg/mL): 35.3 µg/mL | Melanin normiert* ([1]; Konzent. 8 µg/mL): 32.1 µglmL | Melanin ([1]; Konzent. 40 µg/mL): 30.6 µg/mL | Melanin normiert* ([1]; Konzent. 40 µg/mL): 30.4 µglmL | % Kontrolle normiert* ([1]; Konzent. 1.6 µg/mL): 99% | % Kontrolle normiert* ([1]; Konzent. 8 µg/mL): 86% | % Kontrolle normiert* ([1]; Konzent. 40 µg/mL): 82% | % Kontrolle ([1]; Konzent. 1.6 µg/mL): 100% | % Kontrolle ([1]; Konzent. 8 µg/mL): 95% | % Kontrolle ([1]; Konzent. 40 µg/mL): 82% | IC50 (Pilz-tyrosinase): 78 µM

c1ccc(CN2CCN(Cc3ccc4c(c3)OCO4)CC2)cc1 [Ij, 1-Benzo[1,3]dioxol-5-ylmethyl-4-benzyl-piperazin]
IC50 (Pilz-tyrosinase): 153 µM

c1ccc(CN2CCNCC2)nc1 [IIp, 1-Pyridin-2-ylmethyl-piperazin]
IC50 (Pilz-tyrosinase): 553 µM

CCN1CCN(Cc2ccc(O)cc2O)CC1 [Ie, 4-(4-Ethyl-piperazin-1-ylmethyl)-benzen-1,3-diol]
Melanin ([1]; Konzent. 0.8 µg/mL): 37.3 µg/mL | Melanin normiert* ([1]; Konzent. 0.8 µg/mL): 36.5 µglmL | Melanin ([1]; Konzent. 4 µg/mL): 37.5 µg/mL | Melanin normiert* ([1]; Konzent. 4 µg/mL): 36.0 µglmL | Melanin ([1]; Konzent. 20 µg/mL): 33.8 µg/mL | Melanin normiert* ([1]; Konzent. 20 µg/mL): 32.9 µglmL | % Kontrolle normiert* ([1]; Konzent. 0.8 µg/mL): 98% | % Kontrolle normiert* ([1]; Konzent. 4 µg/mL): 97% | % Kontrolle normiert* ([1]; Konzent. 20 µg/mL): 88% | % Kontrolle ([1]; Konzent. 0.8 µg/mL): 100% | % Kontrolle ([1]; Konzent. 4 µg/mL): 101% | % Kontrolle ([1]; Konzent. 20 µg/mL): 91% | IC50 (Pilz-tyrosinase): 263 µM

c1ccc(CN2CCN(Cc3ccccn3)CC2)cc1 [IIk, 1-Benzyl-4-pyridin-2-ylmethyl-piperazin]
IC50 (Pilz-tyrosinase): > 1000 µM

O=c1cc(CO)occ1O [Kojicsäure, reference compound]
Melanin ([1]; Konzent. 6.8 µg/mL): 34.4 µg/mL | Melanin normiert* ([1]; Konzent. 6.8 µg/mL): 38.0 µglmL | Melanin ([1]; Konzent. 15.6 µg/mL): 30 µg/mL | Melanin normiert* ([1]; Konzent. 15.6 µg/mL): 34.6 µglmL | Melanin ([1]; Konzent. 36 µg/mL): 23.8 µg/mL | Melanin normiert* ([1]; Konzent. 36 µg/mL): 31.7 µglmL | % Kontrolle normiert* ([1]; Konzent. 6.8 µg/mL): 101% | % Kontrolle normiert* ([1]; Konzent. 15.6 µg/mL): 92% | % Kontrolle normiert* ([1]; Konzent. 36 µg/mL): 85% | % Kontrolle ([1]; Konzent. 6.8 µg/mL): 92% | % Kontrolle ([1]; Konzent. 15.6 µg/mL): 80% | % Kontrolle ([1]; Konzent. 36 µg/mL): 64% | IC50 (Pilz-tyrosinase): 12 µM

Oc1cc(O)cc(CN2CCN(Cc3ccccc3)CC2)c1 [Id, 5-(4-Benzyl-piperazin-1-ylmethyl)-benzen-1,3-diol]
IC50 (Pilz-tyrosinase): > 1000 µM

Oc1ccc(CN2CCN(Cc3ccccc3)CC2)c(O)c1 [Ib, 4-(4-Benzyl-piperazin-1-ylmethyl)-benzen-1,3-diol]
Melanin ([1]; Konzent. 0.8 µg/mL): 37.8 µg/mL | Melanin normiert* ([1]; Konzent. 0.8 µg/mL): 37.1 µglmL | Melanin ([1]; Konzent. 4 µg/mL): 37.1 µg/mL | Melanin normiert* ([1]; Konzent. 4 µg/mL): 34.8 µglmL | % Kontrolle normiert* ([1]; Konzent. 0.8 µg/mL): 100% | % Kontrolle normiert* ([1]; Konzent. 4 µg/mL): 94% | % Kontrolle ([1]; Konzent. 0.8 µg/mL): 102% | % Kontrolle ([1]; Konzent. 4 µg/mL): 100% | IC50 (Pilz-tyrosinase): 154 µM

c1cc(CN2CCNCC2)ccn1 [IIn, 1-Pydridin-4-ylmethyl-piperazin]
IC50 (Pilz-tyrosinase): 280 µM
